Experimental data reported in patent US20220401457A1, “Use of Deoxycholic Acid, Derivatives, or Salts Thereof in Managing Bacterial Infections and Compositions Related Thereto” (Emory University, priority 2019, published 2022).

Assays:
[1] = system: Streptococcus pneumoniae (Spn) strains; experiment: Antibacterial potency of sodium deoxycholate against cultures of Spn strains; type: cell-based; conditions: concentration as low as 0.5 mg/ml; within two hours of incubation; numerous different Spn strains including vaccine strains and strains with multiple resistance to antibiotics
Protocol: (§1) Streptococcus pneumoniae (Spn) colonizes the upper airways of most children. From the upper airways, Spn migrates to the ear epithelium causing otitis media, a main cause of child disease in the US. Resistance in Spn strains is a serious concern. Bile salts produced in the human liver and secreted into the gut, including sodium deoxycholate. Sodium deoxycholate at a concentration of 10 mg/mL is an injectable treatment to reduce fat under the chin. The antibacterial potency of sodium deoxycholate against Spn was assessed. […] Most tested pneumococcal strains were reference strains provided by the Centers for Disease Control and Prevention (CDC). […] It is contemplated that sodium deoxycholate can be used as a prophylactic agent to eradicate Spn from the upper airways and/or as a therapeutic agent to treat pneumococcal otitis media. To eradicate Spn from the upper airways of healthy children, a strategy using the following routes can be pursued (1) the use of nasal spray to impregnate the upper airways with sodium deoxycholate, or (2) as an additive to a gel or toothpaste. For its therapeutic used in the treatment of otitis media, ototopical antibiotic preparations can be added with sodium deoxycholate to kill antibiotic resistance Spn strains.

[2] = system: pneumococcal colonization (Spn); experiment: Experiments mimicking pneumococcal colonization of the human airways; type: cell-based, Streptococcus pneumoniae; conditions: 0.5 mg/ml; colonization otherwise at density of 1×10^7 cfu/mL pneumococci
Protocol: as §1

In the case of sodium deoxycholate, the “killing of cultures of Spn strains” value [1] is reported as “completely killed” and the “time of exposure to eradicate pneumococcal colonization” value [2] is reported as no more than 10 min.
